Source: US20240252594A1, “COMBINATION THERAPY FOR NEURODEGENERATIVE DISEASES” (ALETA NEUROSCIENCE, LLC, priority 2021, published 2024)

Assays:
MPTP mouse model = settings: pre-treatment 50 mg/kg for 3 days; cited from earlier work
[1] = system: TNF-α mediated neuroinflammation in microglial cells; experiment: LPS/ATP-induced neuroinflammation in microglia: TNF-α secretion (Luminex); assay type: cell-based, human
Source text: (§1) In addition to the studies discussed above assessing activity of combinations of drugs on MPP+-induced neurodegeneration toxicity on human dopaminergic neurons as well as on a human iPSC cell line harboring a triplication mutation in alpha-synuclein gene, and measuring neuronal growth, neurite branching and neurofilament heavy chain, we also assessed combinations of drugs in reducing lipopolysaccharide (LPS, from E. coli)-induced neuroinflammation in human microglia cells.
(§2) Lipopolysaccharides are important outer membrane components of gram-negative bacteria such as E. coli and Salmonella. They are large amphipathic glycoconjugates that typically consist of a lipid domain (hydrophobic) attached to a core oligosaccharide and a distal polysaccharide. LPS binds to Toll-like receptor 4 (TLR4) and activates microglia(98) which in turn increases secretion of pro-inflammatory cytokines such as interleukin-6 (IL-6), tumor necrosis factor-α (TNF-α), and CXCL1/GROα.
(§3) Microglia cells were obtained from an iCell® Microglia kit, 01279 (Catalogue N^o R1131) from FUJIFILM Cellular Dynamics. We followed the manufacturer's protocol for activation of the microglial cells with LPS/ATP to subsequently measure the effect of the study drugs on pro-inflammatory cytokines IL-6, TNF-α and CXCL1/GROα.
(§4) All cell culture procedures were performed in aseptic conditions, under a laminar flow hood. Microglia were thawed and cultured following the provider's instructions. The microglia were plated at 50,000 cells per well of a Corning Primaria 96 well plate (Ref N^o 353872) in 100 μL of growth medium. Cells were incubated at 37° C./5% CO2 in a humidified cell culture incubator.
(§5) Three days after cell plating, the test or reference substances (25 μL of solutions at 5×) were applied 1 hour before LPS and ATP stimulation.
(§6) One hour later, 12.5 μL of test or reference substances were added again at 2× concentrated followed by 12.5 μL of LPS at 12× concentration. Fifty microliters of ATP were introduced at 4× concentration, 5 h 30 min after incubation with LPS.
(§7) Six hours after LPS incubation, the supernatant of each well was collected and centrifugated at 1000 g for 10 minutes to remove the cells and debris.
(§8) Fifty microliters of supernatant from NT and LPS+ATP-treated wells were used to determine cytokine secretion (IL-6, TNF-α, CXCL1/GROα) by Luminex platform according to the provider's instructions. Samples were diluted prior to the assay to fit within the standard range if needed. Three wells were tested per each condition (Table 11). Cytokines levels in the supernatant were expressed in pg/mL. The data was analyzed using a One-Way ANOVA followed by Bonferroni test.

R6/2 transgenic mice = settings: 500 mg/kg; cited from earlier work
[2] = system: iPSC-derived dopaminergic (DA) neurons harboring triplication of the α-synuclein locus; experiment: α-Synuclein triplication cell line: neurofilament heavy chain signal intensity; assay type: cell-based, human; settings: normalized to Hoechst signal; three months treatment; PBA 500 μM, TUDCA 50 μM, EXD 100 nM
Method: We used 12 replicas for each experimental condition and 16 replicas for control (untreated cells). […] Cells were washed three times with warm phosphate buffered saline (PBS) and imaged immediately at 20× magnification on an imageXpress Micro confocal at 37° C. and 5% CO2.
Following imaging, cells were immediately fixed with 4% paraformaldehyde for 30 minutes at room temperature, washed three times with PBS, permeabilized with 0.2% Triton X-100 for 30 minutes, blocked with Odyssey Blocking Buffer for 60 minutes, and incubated overnight at 4° C. with primary antibodies, neurofilament (1:1000, Synaptic Systems 171 002) and LB509 (1:100, Abcam ab27766). Cells were washed 3× with 0.1% Tween-20 in PBS and incubated with Alexa Fluor Goat Anti-Rabbit 790 (1:1000) and Goat Anti-Mouse 647 (1:1000) for 1 hour at RT, before washing 3× with 0.1% Tween-20 in PBS and imaging with Sapphire Biomolecular Imager. Neurofilament heavy chain signal intensity was normalized to fixed Hoechst signal measured with Spectra Gemini plate reader (ex=350 nm, em=461 nm), using Hoechst 33342 nucleic acid stain from Invitrogen according to the manufacturer's instructions. Neurofilaments (NF) are located mostly in axons and indicate roughly the content of neurites. If neurodegeneration is halted or reversed, NF signal increases because it correlates with the number and/or length of neurites in the well.

cortical neurons = settings: 100 μM for 12 h; cited from earlier work
[3] = system: riluzole-treated patients; settings: cited from earlier work
[4] = system: human dopaminergic neurons (iCell DopaNeurons); experiment: MPP+-induced neurotoxicity: cytolysis of iCell DopaNeurons; assay type: cell-based; settings: for Cytolysis, Mean ± S.D.: with MPP+ 100 μM
Method: Three different measurements were made in the experiments. Neurite length in mm was measured, which is a measure of increase in dendril length of neurons. […] Secondly, neurite branching was measured. […] Thirdly, cytolysis of the cells was measured. […] Experimental conditions were measured relative to the results of healthy cells in the studies.
(§9) Procedure. iCell DOPA neurons were thawed and cultured following the provider's instructions in Brainphys medium+provided supplements+1% N2 supplement (Stemcell Technologies)+penicillin/streptomycin+Laminin. They were plated at 20000 cells per well of a 384 well plate (pre-coated with poly-D-lysine and Laminin) in 70 μL of growth medium. Cells were incubated at 37° ° C./5% CO2 in a humidified cell culture incubator. Half of the culture medium was changed twice a week.
(§10) MPP+-induced neurotoxicity: 24 hours after neuronal plating, half of the medium was removed and the test compounds were applied with MPP+ treatment, both concentrated at 4×, were added to the wells. For each well, five aliquots were added, corresponding columns A-E in Table 3. In each row, either the compound indicated dissolved in its vehicle noted in Table 2 was added, or only a vehicle was added as indicated. Column E is an indicator of whether MPP+ was added. If not, only the medium was added.
(§11) For the evaluation of conditions 8, 10,12, 22, 24, Neurite outgrowth was followed for subsequent 48 hours using an Incucyte Zoom platform with one phase contrast image every 4 hours, using a 20× objective. After 48 hours, the medium containing test compounds and MPP+ was removed and replaced by fresh medium containing a fluorescent cytolysis marker (red fluorescence) and a live cell marker (green fluorescence). For the evaluation of conditions 10, 12, 24, 38, 40, 51-53, Neurite outgrowth was followed similarly for subsequent 72 hours after MPP+ was added.
Data was normalized to control conditions as there is basal cytolysis in the cell culture after thawing.

APP/PS1 mice = settings: 6-month treatment with 0.4% of TUDCA in diet; cited from earlier work
[5] = system: IL-6 mediated inflammation in microglial cells; experiment: LPS/ATP-induced neuroinflammation in microglia: IL-6 secretion (Luminex); assay type: cell-based, human
Source text: as §1, §2, §3, §4, §5, §6, §7, §8

[6] = system: human dopaminergic neurons (iCell DopaNeurons); experiment: MPP+-induced neurotoxicity: neurite outgrowth (neurite length, branch points) on iCell DopaNeurons; assay type: cell-based
Source text: MPP+(1-methyl-4-phenylpyridinium) is a known neurotoxin which acts by interfering with oxidative phosphorylation in mitochondria by inhibiting complex I, a protein in the membrane of mitochondria in dopaminergic neurons in the substantia nigra.(94) The inhibition of mitochondrial function leads to the depletion of ATP and eventual cell death. MPP+ ultimately causes Parkinsonism in primates by killing certain dopamine-producing neurons in the substantia nigra.
iCell DOPA neurons are neural floor plate-derived midbrain dopaminergic neurons generated from human induced pluripotent stem cells (iPSCs). Dopaminergic neurons, specifically those located in the floor plate-derived midbrain are implicated in neurological disorders such as Parkinson's disease, MSA and DLBD among others. […] The iCellDopa neurons were supplied from FUJIFILM Cellular Dynamics.
as §9, §10, §11
Assay endpoints and data analysis. Phase contrast images were analyzed at each time point to determine the neurite length and number of branch points per mm^2. Kinetic data was plotted and kinetics were normalized by subtracting the value of the first data point (at time of treatment), allowing to measure changes in neurite outgrowth only from the onset of the treatment, starting at zero. Area Under Curve (AUC) of kinetic data was obtained and used for plotting compound's effects and perform statistical analyzes.

[7] = system: CXCL1/GROα mediated neuroinflammation in microglial cells; experiment: LPS/ATP-induced neuroinflammation in microglia: CXCL1/GROα secretion (Luminex); assay type: cell-based, human
Source text: as §1, §2, §3, §4, §5, §6, §7, §8

SOD(G93A) mice = settings: treatment from 75 days; cited from earlier work
[8] = system: patients with rapidly progressive SOD1 ALS; settings: not statistically significant; cited from earlier work
PD patients = settings: at 6 months; cited from earlier work
R6/2 HD mice = settings: 10-day oral treatment, 9-week mice; cited from earlier work
[9] = LPS (100 ng/mL) + ATP (5 mM), six hours after LPS
[10] = compared with […] distilled water in presence of LPS and ATP

Structure (SMILES): C[C@H](CCC(=O)NCCS(=O)(=O)O)[C@H]1CC[C@H]2[C@@H]3[C@@H](O)C[C@@H]4C[C@H](O)CC[C@]4(C)[C@H]3CC[C@]12C [TUDCA, Tauroursodeoxycholic acid]
- Neurodegeneration of nigral dopaminergic neurons caused by MPTP (MPTP mouse model): significantly reduced neurodegeneration of the nigral dopaminergic neurons
- TNF-α in supernatant, Mean ± S.D. [1, 9]: 28.57 ± 0.58 pg/mL
- TNF-α in supernatant, Replicate 1 [1, 9]: 29.01 pg/mL
- TNF-α in supernatant, Replicate 2 [1, 9]: 27.92 pg/mL
- TNF-α in supernatant, Replicate 3 [1, 9]: 28.79 pg/mL
- Decrease of TNF-α concentration [1, 10]: 52%
- Neuroprotection (R6/2 transgenic mice): neuroprotective effects
- Neurofilament Heavy Chain signal intensity, mean [2]: 1.313
- Aβ peptide-associated apoptosis (cortical neurons): significantly decrease Aβ peptide-associated apoptosis
- Baseline-adjusted ALSFRS-R at study end vs placebo ([3]; P=0.007): significantly higher
- Tolerability ([3]; human, in vivo): well tolerated
- Proportion of responders ([3]; placebo 43%, P=0.021): 87%
- Cytolysis, Mean ± S.D. ([4]; Table 9.1, plate 1): 70.69 ± 2.02%
- Reduction of cytolysis (cell death) (in words) ([4]; vs Control/MPP+): did not reduce cytolysis with statistical significance
- Aβ plaque accumulation in the brain (APP/PS1 mice): prevented Aβ plaque accumulation in the brain
- IL-6 in supernatant, Mean ± S.D. [5, 9]: 437.81 ± 24.71 pg/mL
- IL-6 in supernatant, Replicate 1 [5, 9]: 410.97 pg/mL
- IL-6 in supernatant, Replicate 2 [5, 9]: 442.87 pg/mL
- IL-6 in supernatant, Replicate 3 [5, 9]: 459.60 pg/mL
- Decrease of IL-6 concentration [5, 10]: 37%
- Increase of neurite length compared with MPP+ alone (control/MPP+) ([6]; AUC, MPP+ 100 μM): 43%
- Increase of number of branch points compared with MPP+ alone (control/MPP+) ([6]; AUC, MPP+ 100 μM): 60%
- Neurite length, Mean ([6]; Table 7.1, plate 1, with MPP+ 100 μM, 72 hours): 1825.9 mm/mm^2
- Neurite Branching, Mean ± S.D. ([6]; Table 7.2, plate 1, with MPP+ 100 μM, 72 hours): 58836.3 ± 9596.4 per mm^2
- CXCL1/GROα in supernatant, Mean ± S.D. [7, 9]: 424.96 ± 48.95 pg/mL
- CXCL1/GROα in supernatant, Replicate 1 [7, 9]: 447.19 pg/mL
- CXCL1/GROα in supernatant, Replicate 2 [7, 9]: 368.84 pg/mL
- CXCL1/GROα in supernatant, Replicate 3 [7, 9]: 458.86 pg/mL
- Decrease of GROα concentration [7, 10]: 32%

Structure (SMILES): [O-][n+]1cccc(/C(Cl)=N/OC[C@H](O)CN2CCCCC2)c1 [arimoclomol, Arimoclomol]
- Lifespan (SOD(G93A) mice): significantly increased the lifespan
- Survival, hazard ratio [8]: 0.77

Structure (SMILES): Cc1c(O)c(=O)ccn1C [DFP, Deferiprone]
- UPDRS for motor skills, early start group (PD patients): 21.6±8
- Motor endurance (R6/2 HD mice): improved motor endurance
- Cytolysis, Mean ± S.D. ([4]; Table 9.2, plate 2): 71.91 ± 1.28%
- Protective effect on neurite length and branching (in words) ([6]; MPP+ 100 μM): substantially inferior to condition 40
- Neurite length - Baseline-corrected AUC (0-72 h), Mean ([6]; Table 6.1, plate 2, with MPP+ 100 μM): 874.5 mm/mm^2
- Number of branch points per mm^2 - Baseline-corrected AUC (0-72 h), Mean ([6]; Table 6.2, plate 2, with MPP+ 100 μM): 24282.5 per mm^2
- Neurite length, Mean ± S.D. ([6]; Table 8.1, plate 2, with MPP+ 100 μM, 72 hours): 1303.0 ± 378.7 mm/mm^2
- Neurite Branching, Mean ± S.D. ([6]; Table 8.2, plate 2, with MPP+ 100 μM, 72 hours): 51711.3 ± 15178.4 per mm^2
